Drawing on patent publication US20190127314A1, “HOMOVANILLIC ACID ESTER FOR REDUCING OR INHIBITING FATTY ACID ABSORPTION IN THE SMALL INTESTINE” (SYMRISE AG, priority 2016, published 2019), this text covers activity for 21 compounds.

This experiment relates to differentiated Caco-2-cells. In words: Intestinal fatty acid resorption, QBT Fatty Acid Uptake Kit (BODIPY-dodecanoic acid). It counts as cell-based. The note with it: Homo sapiens, fatty acid resorption AUC as percent of the vehicle treated control, 30 min preincubation, fluorescence measured over 1 h; for activity at 1 µM: 1 μM substance; for activity at 100 µM: 100 μM substance. The text has this:
The ability of modulating the fatty acid resorption/absorption (as described in the scope of the present invention) of a substance or substance mixture can be determined or, respectively, evaluated e.g. according to the method described herein, by using Caco-2-cells (s. also the example section of the present text). Preferably, in the scope of the present text it is to be assumed that substances reducing or, respectively, inhibiting the fatty acid resorption (preferably when performing the method described herein, s. example section) are also suitable for the uses or, respectively, applications according to the invention and described herein. Preferably, the human colon cell line Caco-2 (ATCC-number HTB-37) is used, after differentiation to a phenotype related to entereocytes, as cell model for the resorption of free fatty acids into the small intestine. (Caco-2-cells are preferably cultivated at 37° C. and 5% CO2 content with Dulbecco's Modified Eagles Medium (DMEM) with 10% FBS, 2% L-Glutamine and 1% Penicillin/Streptomycin. The differentiation to enterocytes is preferably performed by an 18-days cultivation of the cells after reaching confluence.)
The resorption of free fatty acids in differentiated Caco-2-cells was analysed with the QBT Fatty Acid Uptake Kit (Molecular Devices Corporation, Germany), which uses the fluorescent fatty acid analogue BODIPY-dodecanoic acid. For preparing the assay, the differentiated Caco-2-cells are subjected to a one hour incubation in serum-free medium at standard cell culture conditions of a hunger phase. Subsequently, the test substances were added at 1 or 100 μM, diluted in Hank's balanced salt solution (HBSS of Lonza, Biozym-order number 882010)-buffer, treated with 20 mM HEPES (diluted from a 1M solution of Gibco, Thermo Fisher-order number 15630056) (in the following described as HBSS/HEPES-buffer). Controls were only treated with HBSS/HEPES-buffer. After a 30 minute preincubation at 37° C., the fluorescent fatty acid analogue was added, which was diluted in HBSS/HEPES-buffer (supplemented with 0.2% fatty acid free BSA [Sigma Aldrich, Germany]). The fluorescence signals were measured after excitation with 485 nm at an emission wavelength of 515 nm during a time of 1 h in a microtiter plate-reader (Synergy; BioTek, Germany). Starting from a time-signal-intensity curve resulting from the measurement, the area under the curve (AUC) was calculated to determine the cellular fatty acid resorption after treatment with the substances. The results obtained thereby are indicated as percent related to the control treatment (s. table 1).
Table 1: Results of the measurement of the inhibition of the fatty acid resorption in Caco-2-cells. The calculated area under the curve (AUC) is shown for tests at each 1 and 100 μM substance used (as percent of the vehicle treated control).
With the test for measurement shown in example 2, in total 25 compounds of formula (I) (as described herein) were measured for their inhibitory activity regarding the fatty acid resorption in Caco-2-cells for each two concentrations (1 and 100 μM) in triple determination. The obtained activity data was subsequently used for a structure-effect-analysis by using the software-package StarDrop (Optibrium Ltd) and Vortex (Dotmatics Ltd.). Thereby, an R-group analysis with the basic structure according to formula (II) was performed.

As to `COc1cc(CC(=O)OCCc2ccccc2)ccc1O` [Compound 1, 2-Phenylethyl-2-(4-hydroxy-3-methoxy-phenyl)acetate], the activity at 1 µM stood at 103% and the activity at 100 µM turned out to be 103%.

With `COc1cc(CC(=O)OC/C=C/c2ccccc2)ccc1O` [Compound 2, [(E)-Cinnamyl]-2-(4-hydroxy-3-methoxy-phenyl)acetate], the activity at 1 µM was 97.6% and the activity at 100 µM is 94.6%.

Take `CCCC(CC)OC(=O)Cc1ccc(O)c(OC)c1` (stereo not drawn) [Compound 3, 1-Ethylbutyl-2-(4-hydroxy-3-methoxy-phenyl)acetate]: the activity at 1 µM amounted to 87.1% and the activity at 100 µM is 62.5%.

Take `COc1cc(CC(=O)OCC=C(C)C)ccc1O` [Compound 4, 3-Methylbut-2-enyl-2-(4-hydroxy-3-methoxy-phenyl)acetate]: the activity at 1 µM is 101% and the activity at 100 µM came to 80.9%.

Take `CCC/C=C/COC(=O)Cc1ccc(O)c(OC)c1` [Compound 5, [(E)-Hex-2-enyl]-2-(4-hydroxy-3-methoxy-phenyl)acetate]: the activity at 1 µM turned out to be 101% and the activity at 100 µM turned out to be 96.5%.

Turning to `CC/C=C\CCOC(=O)Cc1ccc(O)c(OC)c1` [Compound 6, [(Z)-Hex-3-enyl]-2-(4-hydroxy-3-methoxy-phenyl)acetate], the activity at 1 µM worked out at 99.9% and the activity at 100 µM was 90.4%.

`COc1cc(CC(=O)OC(C)C)ccc1O` [Compound 7, Isopropyl-2-(4-hydroxy-3-methoxy-phenyl)acetate]: the activity at 1 µM stood at 91.6% and the activity at 100 µM was 61.6%.

Take `CCC(C)OC(=O)Cc1ccc(O)c(OC)c1` (stereo not drawn) [Compound 8, sec-Butyl-2-(4-hydroxy-3-methoxy-phenyl)acetate]: the activity at 1 µM is 92% and the activity at 100 µM came out at 61.9%.

On to `COc1cc(CC(=O)OCC(C)C)ccc1O` [Compound 9, Isobutyl-2-(4-hydroxy-3-methoxy-phenyl)acetate], for which the activity at 1 µM amounted to 100% and the activity at 100 µM was 68%.

On to `COc1cc(CC(=O)OCCC(C)C)ccc1O` [Compound 10, Isopentyl-2-(4-hydroxy-3-methoxy-phenyl)acetate], for which the activity at 1 µM is 99.8% and the activity at 100 µM came out at 82.7%.

Take `CCC(C)COC(=O)Cc1ccc(O)c(OC)c1` (stereo not drawn) [Compound 11, 2-Methylbutyl-2-(4-hydroxy-3-methoxy-phenyl)acetate]: the activity at 1 µM came to 99% and the activity at 100 µM came to 79%.

On to `CCCCC(C)OC(=O)Cc1ccc(O)c(OC)c1` (stereo not drawn) [Compound 12, 1-Methylpentyl-2-(4-hydroxy-3-methoxy-phenyl)acetate], for which the activity at 1 µM is 89.5% and the activity at 100 µM amounted to 53.3%.

Take `CCCCCCCOC(=O)Cc1ccc(O)c(OC)c1` [Compound 13, Heptyl-2-(4-hydroxy-3-methoxy-phenyl)acetate]: the activity at 1 µM worked out at 103% and the activity at 100 µM worked out at 92.7%.

On to `CCCCCC(C)OC(=O)Cc1ccc(O)c(OC)c1` (stereo not drawn) [Compound 14, 1-Methyl hexyl-2-(4-hydroxy-3-methoxy-phenyl)acetate], for which the activity at 1 µM worked out at 93.4% and the activity at 100 µM stood at 67.5%.

For `COc1cc(CC(=O)O[C@@H]2C[C@H](C)CC[C@H]2C(C)C)ccc1O` [Compound 15, (2-Isopropyl-5-methyl-cyclohexyl)-2-(4-hydroxy-3-methoxy-phenyl)acetate], the activity at 1 µM was determined as 95.5% and the activity at 100 µM turned out to be 58.1%.

As for `CCOC(=O)Cc1ccc(O)c(OC)c1` [Compound 16, Ethyl-2-(4-hydroxy-3-methoxy-phenyl)acetate], the activity at 1 µM is 105% and the activity at 100 µM turned out to be 93.8%.

On to `CCCOC(=O)Cc1ccc(O)c(OC)c1` [Compound 17, Propyl-2-(4-hydroxy-3-methoxy-phenyl)acetate], for which the activity at 1 µM worked out at 101% and the activity at 100 µM stood at 89.7%.

With `CCCCOC(=O)Cc1ccc(O)c(OC)c1` [Compound 18, Butyl-2-(4-hydroxy-3-methoxy-phenyl)acetate], the activity at 1 µM was 102% and the activity at 100 µM was found to be 90.7%.

On to `CCCCCOC(=O)Cc1ccc(O)c(OC)c1` [Compound 19, Pentyl-2-(4-hydroxy-3-methoxy-phenyl)acetate], for which the activity at 1 µM is 101% and the activity at 100 µM was 92.9%.

For `CCCCCCOC(=O)Cc1ccc(O)c(OC)c1` [Compound 20, Hexyl-2-(4-hydroxy-3-methoxy-phenyl)acetate], the activity at 1 µM was 102% and the activity at 100 µM is 91.4%.

For `CCC(CC)COC(=O)Cc1ccc(O)c(OC)c1` [Compound 23, 2-Ethylbutyl-2-(4-hydroxy-3-methoxy-phenyl)acetate], the activity at 1 µM came out at 99.7% and the activity at 100 µM is 62.1%.
